Data on 21 compounds can be found in PubChem BioAssay AID314 (DTP/NCI, 2004).

This assay deals with DBA/2 mice, P1534 leukemia ip, survival T/C. The experiment in a line: NCI In Vivo Anticancer Drug Screen. Data for tumor model P1534 Leukemia (intraperitoneal) in DBA/2 mice. Particulars: endpoint: mean survival time, higher = longer survival. How it is done:
The antitumor activity of compounds was measured in mice bearing transplantable tumors. Survival or tumor size were measured and the results are expressed as the measurement made in the treated group (T) divided by the measurement made in the vehicle treated control group (C). The tumor model used in this assay is P1534 Leukemia (intraperitoneal) in DBA/2 mice

Setting [1] is: dose: 4.0 mg/kg/injection, schedule: Q01DX010 (ip), vehicle: saline.
Setting [2] is: dose: 8.0 mg/kg/injection, schedule: Q01DX010 (ip), vehicle: saline.
The mark [3] stands for this setting: dose: 1.25 mg/kg/injection, schedule: Q01DX010 (ip), vehicle: saline.
The mark [4] stands for this setting: dose: 2.5 mg/kg/injection, schedule: Q01DX010 (ip), vehicle: saline.
Setting [5] is: dose: 0.13 mg/kg/injection, schedule: Q01DX010 (ip), vehicle: saline.
[6] abbreviates: dose: 0.25 mg/kg/injection, schedule: Q01DX010 (ip), vehicle: saline.
[7] abbreviates: dose: 12.5 mg/kg/injection, schedule: Q01DX010 (ip), vehicle: saline.
Where [8] appears, read: dose: 25.0 mg/kg/injection, schedule: Q01DX010 (ip), vehicle: saline.
Setting [9] is: dose: 50.0 mg/kg/injection, schedule: Q01DX010 (ip), vehicle: saline.
Setting [10] is: dose: 100.0 mg/kg/injection, schedule: Q01DX010 (ip), vehicle: saline.
The mark [11] stands for this setting: dose: 31.3 mg/kg/injection, schedule: Q01DX010 (ip), vehicle: saline.
[12] abbreviates: dose: 62.5 mg/kg/injection, schedule: Q01DX010 (ip), vehicle: saline.
[13] abbreviates: dose: 125.0 mg/kg/injection, schedule: Q01DX010 (ip), vehicle: saline.
[14] abbreviates: dose: 0.5 mg/kg/injection, schedule: Q01DX010 (ip), vehicle: saline.
[15] abbreviates: dose: 1.0 mg/kg/injection, schedule: Q01DX010 (ip), vehicle: saline.
[16] abbreviates: dose: 2.0 mg/kg/injection, schedule: Q01DX010 (ip), vehicle: saline.

Where “and” joins values, the source holds several entries; their conditions need not be identical. Identical values can stand only once. Toxic doses and inconclusive results are not listed.

Regarding `CSc1ncnc2c1ncn2C1OC(CO)C(O)C1O` (stereo not drawn), the T/C runs as follows: under setting [1], 100 % of control; under setting [2], 100 % of control; (dose: 16.0 mg/kg/injection, schedule: Q01DX010 (ip), vehicle: saline) 96 % of control and 100 % of control.
As to `S=P(N1CCOCC1)(N1CC1)N1CC1`, the T/C under setting [3] was 100 % of control and 103 % of control; the T/C under setting [4] was 92 % of control and 100 % of control.
Take `CC[C@]1(O)C[C@H]2CN(CCc3c([nH]c4ccccc34)[C@@](C(=O)OC)(c3cc4c(cc3OC)N(C=O)[C@H]3[C@@](O)(C(=O)OC)[C@H](OC(C)=O)[C@]5(CC)C=CCN6CC[C@]43[C@@H]65)C2)C1`: the T/C is, setting by setting: (dose: 15.6 micrograms/kg/injection, schedule: Q01DX010 (ip), vehicle: saline) 117 % of control; (dose: 31.3 micrograms/kg/injection, schedule: Q01DX010 (ip), vehicle: saline) 114 % of control.
Turning to `O=c1[nH]c(=O)n(C2CC(O)C(CO)O2)cc1F` (stereo not drawn), the T/C reads like this: under setting [4], 107 % of control and 111 % of control; (dose: 5.0 mg/kg/injection, schedule: Q01DX010 (ip), vehicle: saline) 111 % of control; (dose: 20.0 mg/kg/injection, schedule: Q01DX010 (ip), vehicle: saline) 153 % of control; (dose: 37.5 mg/kg/injection, schedule: Q01DX010 (ip), vehicle: saline) 169 % of control.
For `CN(C)c1nc(N(C)C)nc(N(C)C)n1`, the T/C by setting is: (dose: 9.4 mg/kg/injection, schedule: Q01DX010 (ip), vehicle: saline) 103 % of control and 111 % of control; (dose: 150.0 mg/kg/injection, schedule: Q01DX010 (ip), vehicle: saline) 103 % of control and 107 % of control.
As to `O[C@H](CN1CC1)[C@@H](O)CN1CC1`, the T/C reads like this: under setting [5], 88 % of control; under setting [6], 96 % of control.
`COc1cc2c3c(c4ccc(OC)c(OC)c4c2cc1OC)CN1CCC[C@@H]1C3`: the T/C was 88 % of control under setting [4]; 92 % of control and 107 % of control (dose: 10.0 mg/kg/injection, schedule: Q01DX010 (ip), vehicle: saline); 96 % of control and 121 % of control (dose: 15.0 mg/kg/injection, schedule: Q01DX010 (ip), vehicle: saline).
For the compound `COC1C(OC(N)=O)C(O)C(Oc2ccc3c(O)c(NC(=O)c4ccc(O)c(CC=C(C)C)c4)c(=O)oc3c2C)OC1(C)C` (stereo not drawn), the T/C (dose: 6.25 mg/kg/injection, schedule: Q01DX010 (ip), vehicle: saline) was 100 % of control; the T/C under setting [7] is 104 % of control; the T/C under setting [8] was 100 % of control; the T/C under setting [9] was 103 % of control and 104 % of control; the T/C under setting [10] is 96 % of control; the T/C (dose: 200.0 mg/kg/injection, schedule: Q01DX010 (ip), vehicle: saline) is 92 % of control.
For `O=C(OCC1OC(n2cnc3c(=S)nc[nH]c32)C(OC(=O)c2ccccc2)C1OC(=O)c1ccccc1)c1ccccc1` (stereo not drawn), the T/C (dose: 7.8 mg/kg/injection, schedule: Q01DX010 (ip), vehicle: saline) is 87 % of control; the T/C (dose: 15.6 mg/kg/injection, schedule: Q01DX010 (ip), vehicle: saline) is 91 % of control; the T/C under setting [11] was 87 % of control; the T/C under setting [12] is 100 % of control; the T/C under setting [13] was 91 % of control; the T/C (dose: 250.0 mg/kg/injection, schedule: Q01DX010 (ip), vehicle: saline) was 87 % of control.
On to `N=[N+]=CC(=O)OCC(N)C(=O)O` (stereo not drawn), for which the T/C reads like this: under setting [14], 94 % of control; under setting [15], 103 % of control and 120 % of control; under setting [16], 120 % of control and 123 % of control; under setting [1], 117 % of control.
`CC(CCC(C)OS(C)(=O)=O)OS(C)(=O)=O` (stereo not drawn): the T/C reads like this: under setting [16], 96 % of control and 103 % of control; under setting [1], 100 % of control and 107 % of control; under setting [2], 96 % of control and 100 % of control.
Take `N=C(N)c1ccc(Nc2ccc(C(=N)N)cc2)cc1`: the T/C runs as follows: (dose: 6.0 mg/kg/injection, schedule: Q01DX010 (ip), vehicle: saline) 96 % of control; (dose: 12.0 mg/kg/injection, schedule: Q01DX010 (ip), vehicle: saline) 89 % of control and 100 % of control.
Take `COC(=O)C1C(O)CCC2CN3CCc4c([nH]c5ccccc45)C3CC21` (stereo not drawn): the T/C (dose: 0.31 mg/kg/injection, schedule: Q01DX010 (ip), vehicle: saline) was 103 % of control; the T/C (dose: 0.63 mg/kg/injection, schedule: Q01DX010 (ip), vehicle: saline) is 103 % of control; the T/C under setting [3] is 106 % of control; the T/C under setting [4] was 103 % of control.
Turning to `Nc1nc(=S)c2ncn(C3OC(CO)C(O)C3O)c2[nH]1` (stereo not drawn), the T/C is 110 % of control under setting [6], 96 % of control under setting [15] and 89 % of control under setting [16].
`CN1CCCC1c1cccnc1` (stereo not drawn): the T/C under setting [5] was 100 % of control, the T/C under setting [6] is 100 % of control, the T/C under setting [14] was 100 % of control and the T/C under setting [15] was 100 % of control.
Turning to `Clc1ccc(C(c2ccccc2Cl)C(Cl)Cl)cc1` (stereo not drawn), the T/C (dose: 62.5 mg/kg/injection, schedule: Q01DX010 (sc), vehicle: steriod suspending solution) is 100 % of control; the T/C (dose: 125.0 mg/kg/injection, schedule: Q01DX010 (sc), vehicle: steriod suspending solution) was 100 % of control; the T/C (dose: 250.0 mg/kg/injection, schedule: Q01DX010 (sc), vehicle: steriod suspending solution) is 96 % of control and 100 % of control; the T/C (dose: 500.0 mg/kg/injection, schedule: Q01DX010 (sc), vehicle: steriod suspending solution) was 100 % of control.
Turning to `Cn1cnc([N+](=O)[O-])c1Sc1ncnc2nc[nH]c12`, the T/C under setting [7] is 96 % of control.
With `S=P(N1CC1)(N1CC1)N1CC1`, the T/C was 91 % of control and 99 % of control under setting [6]; 94 % of control and 100 % of control under setting [14]; 95 % of control under setting [15]; 87 % of control and 89 % of control under setting [16].
Regarding `CCOC(=O)NP(=O)(N1CC1(C)C)N1CC1(C)C` (stereo not drawn), the T/C was 107 % of control under setting [11], 92 % of control under setting [12] and 103 % of control under setting [13].
In the case of `COS(C)(=O)=O`, the T/C is 88 % of control and 100 % of control under setting [7]; 88 % of control under setting [8]; 92 % of control under setting [9].
As to `CN(C)/N=N/c1nc[nH]c1C(N)=O`, the T/C is 96 % of control under setting [8], 90 % of control under setting [9] and 86 % of control under setting [10].
